In one experiment the target is Human PARP1 (Homo sapiens (Human), UniProt P09874). The experiment in a line: PARP1 autoparsylation assay (LC/MS detection of nicotinamide). The conditions noted are these: 20 nM enzyme, 250 μM β-NAD+, 60 min. The class given is biochemical. The protocol:
(§1) The autoparsylation activity of the TNKS 1/2 or PARP1/2 enzymes was measured by the liquid chromatography-mass spectrometry (LC/MS) detection of nicotinamide as readout. Compound activity in inhibiting the TNKS and PARP autoparsylation was evaluated by IC50 measurements.

In the next experiment the target is PARP2 (Mus musculus (Mouse), UniProt O88554). The experiment can be described thus: PARP2 autoparsylation assay (LC/MS detection of nicotinamide). The conditions noted are these: 20 nM enzyme, 250 μM β-NAD+, 60 min. The class given is biochemical. The protocol: as §1
Sequence of PARP2 (O88554 whole entry): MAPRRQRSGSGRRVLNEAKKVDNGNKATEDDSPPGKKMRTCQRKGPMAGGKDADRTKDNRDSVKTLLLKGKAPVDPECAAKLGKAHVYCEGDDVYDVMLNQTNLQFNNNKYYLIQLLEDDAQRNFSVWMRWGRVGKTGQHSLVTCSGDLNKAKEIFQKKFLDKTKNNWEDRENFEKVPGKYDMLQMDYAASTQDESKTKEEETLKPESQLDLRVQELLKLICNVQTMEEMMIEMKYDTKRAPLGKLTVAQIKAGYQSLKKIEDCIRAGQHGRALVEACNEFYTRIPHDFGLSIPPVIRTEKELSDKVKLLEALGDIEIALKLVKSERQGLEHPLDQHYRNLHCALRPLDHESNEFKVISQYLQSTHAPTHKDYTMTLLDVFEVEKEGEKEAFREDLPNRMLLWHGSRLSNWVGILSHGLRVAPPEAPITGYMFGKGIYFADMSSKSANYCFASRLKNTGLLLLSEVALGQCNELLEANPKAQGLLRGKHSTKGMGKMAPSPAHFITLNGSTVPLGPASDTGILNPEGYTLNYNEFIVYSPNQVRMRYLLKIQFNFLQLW
Experiment [1] has as its system Wnt ligand-induced signaling in HEK293 cells. The experiment can be described thus: Wnt-responsive Super-TOpFlash (STF) luciferase reporter gene assay. The class given is cell-based. The conditions noted are these: Homo sapiens, Wnt3A condition medium. An outline of the steps: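 HEK293 cells (8000/well, 5% FBS medium) treated with 20% mouse L-cell Wnt3A conditioned medium plus compounds in 10-point serial dilution; luciferase read next day. Inhibition calculated relative to Wnt3A-induced signal without compound and background without Wnt3A CM or compound.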
In general terms: Reporter assays use an easily measured gene product as a stand-in for the process of interest.

The test system of experiment [2] is Axin2 protein in SW480 cells. The experiment can be described thus: Cellular ELISA assay of Axin2 protein stabilization. The conditions noted are these: Homo sapiens, 24 hrs, read-out: Axin AC50. The class given is cell-based. In outline: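 SW480 colorectal cells seeded overnight, treated with compound, then lysed. Axin2 in lysates measured by sandwich ELISA: anti-Axin2 capture antibody coated at 1 μg/ml (pH 9.2), lysate 2 h at room temperature, biotinylated anti-Axin2 detection 2 h, then streptavidin-HRP 30 min.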
(An ELISA detects its analyte on a solid surface through an enzyme-linked reagent.)

Experiment [3] relates to Non-small lung cancer ABC-1 cells. The experiment in a line: Cellular proliferation assay (CellTiter-Glo). The class given is cell-based. The following applies: Homo sapiens, 72 h; ABC-1 cells, 3 days of compound treatment; read-out: ABC-1 IC50. In general terms: Cellular ATP, detected with luciferase, serves as a proxy for viable cell number.
Protocol: Cellular Proliferation Assay to Determine Compound Inhibition of Cancer Cell Growth
Viable cells were measured after 3 days of compound treatment using the CellTiter-Glo assay (Promega, G7570). Assay was performed following the manufacture protocol.
Experiment [4] concerns the target human tankyrase 1 PARP catalytic domain, TNKS1P (Homo sapiens (Human), UniProt O95271). The experiment in a line: TNKS1 autoparsylation assay (LC/MS detection of nicotinamide). The following applies: read-out: TNKS1 AP IC50, 20 nM enzyme, 250 μM β-NAD+, 60 min.
Protocol: Biochemical Assay to Determine Compound Inhibition of TNKS Enzyme Activity
The autoparsylation activity of the TNKS 1/2 or PARP1/2 enzymes was measured by the liquid chromatography-mass spectrometry (LC/MS) detection of nicotinamide as readout. Compound activity in inhibiting the TNKS and PARP autoparsylation was evaluated by IC50 measurements. […] For the background control wells, 10 μL of the 5× quenching solution per well was added prior to the addition of β-NAD^+. The % Inhibition was calculated as: (Control−Sample)/(Control−Background)*100.
Experiment [5] has as its target tankyrase 2 protein PARP domain, TNKS2P (Homo sapiens (Human), UniProt Q9H2K2). The experiment can be described thus: TNKS2 autoparsylation assay (LC/MS detection of nicotinamide). The conditions noted are these: read-out: TNKS2 AP IC50, 20 nM enzyme, 250 μM β-NAD+, 60 min.

A value given as a limit tells only on which side of the number the result lay.

These results are taken from patent US9181266B2, “2-piperidin-1-yl-acetamide compounds for use as tankyrase inhibitors” (NOVARTIS AG, priority 2011, dated 2015).

A word on the IC50: it is the midpoint of a concentration-inhibition curve. By AC50 is commonly meant the concentration giving half of the maximal activity seen.

Sequence of human tankyrase 1 PARP catalytic domain, TNKS1P (O95271 1112-1317): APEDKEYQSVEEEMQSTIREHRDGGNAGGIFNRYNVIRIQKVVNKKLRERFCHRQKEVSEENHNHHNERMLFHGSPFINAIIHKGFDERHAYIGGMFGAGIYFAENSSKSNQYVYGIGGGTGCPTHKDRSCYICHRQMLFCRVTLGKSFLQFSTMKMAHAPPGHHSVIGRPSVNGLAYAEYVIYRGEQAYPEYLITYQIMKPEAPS
Sequence of tankyrase 2 protein PARP domain, TNKS2P (Q9H2K2 959-1164): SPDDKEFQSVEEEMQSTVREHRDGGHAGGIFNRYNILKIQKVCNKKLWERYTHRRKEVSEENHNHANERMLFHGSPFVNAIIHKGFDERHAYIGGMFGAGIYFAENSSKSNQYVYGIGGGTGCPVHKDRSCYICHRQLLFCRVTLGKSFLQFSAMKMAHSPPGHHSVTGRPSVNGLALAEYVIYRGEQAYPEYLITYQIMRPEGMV
Sequence of Human PARP1 (P09874 whole entry): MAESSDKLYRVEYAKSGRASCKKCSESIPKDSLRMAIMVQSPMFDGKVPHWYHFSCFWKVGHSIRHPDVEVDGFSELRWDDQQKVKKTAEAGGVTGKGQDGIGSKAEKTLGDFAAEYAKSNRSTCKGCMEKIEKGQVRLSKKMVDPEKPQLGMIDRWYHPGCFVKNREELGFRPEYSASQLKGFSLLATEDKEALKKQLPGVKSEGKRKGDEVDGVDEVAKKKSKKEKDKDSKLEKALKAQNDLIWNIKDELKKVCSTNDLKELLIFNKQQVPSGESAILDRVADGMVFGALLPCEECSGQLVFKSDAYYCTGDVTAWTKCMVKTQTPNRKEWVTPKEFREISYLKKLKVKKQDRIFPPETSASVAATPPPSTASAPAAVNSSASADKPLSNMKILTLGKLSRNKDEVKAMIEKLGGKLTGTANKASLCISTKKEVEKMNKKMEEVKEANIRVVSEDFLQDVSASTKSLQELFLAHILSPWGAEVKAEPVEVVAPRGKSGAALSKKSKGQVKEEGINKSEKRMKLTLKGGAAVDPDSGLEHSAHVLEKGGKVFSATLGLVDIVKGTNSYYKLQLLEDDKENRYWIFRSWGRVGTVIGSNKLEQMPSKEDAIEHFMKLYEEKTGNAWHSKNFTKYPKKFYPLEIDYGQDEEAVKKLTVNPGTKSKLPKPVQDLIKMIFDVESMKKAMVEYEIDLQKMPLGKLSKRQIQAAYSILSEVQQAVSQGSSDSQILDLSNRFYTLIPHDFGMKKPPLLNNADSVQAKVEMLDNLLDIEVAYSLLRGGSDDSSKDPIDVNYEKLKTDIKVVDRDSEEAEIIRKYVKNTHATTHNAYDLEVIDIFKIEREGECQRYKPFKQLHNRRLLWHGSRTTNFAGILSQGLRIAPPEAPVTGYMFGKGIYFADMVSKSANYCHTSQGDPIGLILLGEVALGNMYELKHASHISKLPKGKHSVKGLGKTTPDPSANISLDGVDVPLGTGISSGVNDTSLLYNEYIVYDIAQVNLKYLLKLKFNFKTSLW

Take `O=C(CN1CCC(C(=O)c2ccc(Cl)cc2)CC1)NCc1nc2c(c(=O)[nH]1)COCC2` [Example 2, 2-[4-(4-Chloro-benzoyl)-piperidin-1-yl]-N-(4-oxo-3,5,7,8-tetrahydro-4H-pyrano[4,3-d]-pyrimidin-2-ylmethyl)-acetamide]: the IC50 turned out to be 9100 ± 1000 nM on Human PARP1; 2590 ± 290 nM at PARP2; 10 ± 2 nM in experiment [1]; 393 nM in experiment [3]; 37 ± 2 nM in experiment [4]; 7 nM in experiment [5]. Moreover, the AC50 in experiment [2] was 205 ± 61 nM.

With `CC(C)Oc1ccc(C(=O)C2CCN(CC(=O)NCc3nc4c(c(=O)[nH]3)COCC4)CC2)cc1` [Example 3, 2-[4-(4-Isopropoxy-benzoyl)-piperidin-1-yl]-N-(4-oxo-3,5,7,8-tetrahydro-4H-pyrano[4,3-c]pyrimidin-2-ylmethyl)-acetamide], the IC50 at Human PARP1 amounted to 5630 ± 730 nM; on PARP2, 2100 ± 240 nM; in experiment [1], 23 ± 2 nM; in experiment [3], 105 nM; in experiment [4] it was 35 ± 9 nM; in experiment [5], 14 ± 1 nM. For the same compound, the AC50 in experiment [2] was 62 ± 16 nM.

Consider `O=C(CN1CCC(C(=O)c2ccc(F)cc2)CC1)NCc1nc2c(c(=O)[nH]1)CCCC2` [Example 10, 2-(4-(4-Fluorobenzoyl)piperidin-1-yl)-N-((4-oxo-3,4,5,6,7,8-hexahydroquinazolin-2-yl)methyl)acetamide], for which the IC50 at Human PARP1 stood at 2700 ± 800 nM; on PARP2, 700 ± 80 nM; in experiment [1], 27 ± 15 nM; in experiment [3], 393 nM; in experiment [4], 55 ± 3 nM; in experiment [5], 36 ± 2 nM. In addition, in experiment [2], the AC50 was 479 ± 24 nM.

As to `COc1ccc(C(=O)C2CCN(CC(=O)NCc3nc4c(c(=O)[nH]3)CCC4)CC2)cc1` [Example 11, 2-(4-(4-Methoxybenzoyl)piperidin-1-yl)-N-((4-oxo-4,5,6,7-tetrahydro-3H-cyclopenta[d]pyrimidin-2-yl)methyl)acetamide], the IC50 is 17900 ± 1800 nM at Human PARP1; 4620 ± 20 nM on PARP2; 3 ± 1 nM in experiment [1]; 18 nM in experiment [3]; 28.5 ± 3.5 nM in experiment [4]; 110 ± 140 nM in experiment [5]. Also, the AC50 in experiment [2] amounted to 15 ± 4 nM.

With `COc1ccc(C(=O)C2CCN(CC(=O)NCc3nc(C)c(C)c(=O)[nH]3)CC2)cc1` [Example 12, N-((4,5-Dimethyl-6-oxo-1,6-dihydropyrimidin-2-yl)methyl)-2-(4-(4-methoxybenzoyl)piperidin-1-yl)acetamide], the half-maximal inhibitory concentration (IC50) is greater than 19000 nM against Human PARP1; greater than 19000 nM against PARP2; 7 ± 4 nM in experiment [1]; 53 nM in experiment [3]; 40 ± 2 nM in experiment [4]; 20 ± 3 nM in experiment [5]. Moreover, in experiment [2], the AC50 was 32 ± 4 nM.

For the compound `CC(C)(C)CN(Cc1nc2c(c(=O)[nH]1)COCC2)C(=O)CN1CCC(C(=O)c2ccc(F)cc2)CC1` [Example 14, 2-(4-(4-Fluorobenzoyl)piperidin-1-yl)-N-neopentyl-N-((4-oxo-4,5,7,8-tetrahydro-3H-pyrano[4,3-d]pyrimidin-2-yl)methyl)acetamide], the IC50 at Human PARP1 is greater than 19000 nM; against PARP2 it was greater than 19000 nM; in experiment [1], 49 ± 23 nM; in experiment [3], 270 nM; in experiment [4] it was 60 ± 7 nM; in experiment [5], 20 ± 1 nM. Further, in experiment [2], the AC50 stood at 501 ± 29 nM.

On to `O=C(c1ccc(F)cc1)C1CCN(CC(=O)N(Cc2ccc(F)cc2)Cc2nc3c(c(=O)[nH]2)COCC3)CC1` [Example 15, 2-(4-(4-Fluorobenzoyl)piperidin-1-yl)-N-(4-fluorobenzyl)-N-((4-oxo-4,5,7,8-tetrahydro-3H-pyrano[4,3-d]pyrimidin-2-yl)methyl)acetamide], for which the IC50 is greater than 19000 nM against Human PARP1; greater than 19000 nM at PARP2; 101 ± 74 nM in experiment [1]; 540 nM in experiment [3]; 138 ± 1 nM in experiment [4]; 32 ± 1 nM in experiment [5]. Besides, in experiment [2], the AC50 amounted to 804 ± 91 nM.

`COc1ccc(CN(Cc2nc3c(c(=O)[nH]2)COCC3)C(=O)CN2CCC(C(=O)c3ccc(F)cc3)CC2)cc1` [Example 16, 2-(4-(4-Fluorobenzoyl)piperidin-1-yl)-N-(4-methoxybenzyl)-N-((4-oxo-4,5,7,8-tetrahydro-3H-pyrano[4,3-d]pyrimidin-2-yl)methyl)acetamide]: the IC50 against Human PARP1 is greater than 19000 nM; against PARP2 it was greater than 19000 nM; in experiment [1] it was 49 ± 43 nM; in experiment [3], 340 nM; in experiment [4], 66 ± 4 nM; in experiment [5], 15 ± 2 nM. Moreover, in experiment [2], the AC50 was 587 ± 87 nM.

As for `O=C(c1ccc(F)cc1)C1CCN(CC(=O)N(Cc2nc3c(c(=O)[nH]2)COCC3)Cc2nc3ccccc3s2)CC1` [Example 17, N-(Benzo[d]thiazol-2-ylmethyl)-2-(4-(4-fluorobenzoyl)piperidin-1-yl)-N-((4-oxo-4,5,7,8-tetrahydro-3H-pyrano[4,3-d]pyrimidin-2-yl)methyl)acetamide], the IC50 at Human PARP1 was greater than 19000 nM; at PARP2 it was greater than 19000 nM; in experiment [1] it was 49 ± 37 nM; in experiment [3] it was 420 nM; in experiment [4] it was 73 ± 3 nM; in experiment [5] it was 18 ± 1 nM. Further, the AC50 in experiment [2] was determined as 125 ± 18 nM.

On to `O=C(c1ccc(F)cc1)C1CCN(CC(=O)N(Cc2nc3c(c(=O)[nH]2)COCC3)CC2CC2)CC1` [Example 24, N-Cyclopropylmethyl-2-[4-(4-fluoro-benzoyl)-piperidin-1-yl]-N-(4-oxo-3,5,7,8-tetrahydro-4H-pyrano[4,3-d]pyrimidin-2-ylmethyl)-acetamide], for which the IC50 against Human PARP1 is greater than 19000 nM; on PARP2, greater than 19000 nM; in experiment [3] it was 276 ± 37 nM; in experiment [4] it was 35 ± 10 nM. In experiment [2], the AC50 amounted to 320 ± 180 nM.

As to `O=C(CN1CCC2(CC1)Cc1cc(F)ccc1C2=O)NCc1nc2c(c(=O)[nH]1)COCC2` [Example 61, 2-(5-Fluoro-1-oxo-1,3-dihydrospiro[indene-2,4′-piperidine]-1′-yl)-N-((4-oxo-4,5,7,8-tetrahydro-3H-pyrano[4,3-d]pyrimidin-2-yl)methyl)acetamide], the IC50 on Human PARP1 is 6500 ± 1700 nM; against PARP2, greater than 19000 nM; in experiment [1], 1600 ± 800 nM; in experiment [3], 8120 nM; in experiment [4] it was 25 ± 6 nM; in experiment [5], 8 ± 2.6 nM.

As for `CCOc1ccc(C(=O)C2CCN(CC(=O)NCc3nc4c(c(=O)[nH]3)COCC4)CC2)cc1` [Example 66, 2-(4-(4-Ethoxybenzoyl)piperidin-1-yl)-N-((4-oxo-4,5,7,8-tetrahydro-3H-pyrano[4,3-d]pyrimidin-2-yl)methyl)acetamide], the IC50 at Human PARP1 was 6500 ± 1300 nM; on PARP2, 3200 ± 1000 nM; in experiment [1], 5690 ± 170 nM; in experiment [4], 27 ± 10 nM; in experiment [5], 9 ± 7 nM. Further, in experiment [2], the AC50 is greater than 10000 nM.

For `COc1cccc(C(=O)C2CCN(CC(=O)N(Cc3nc4c(c(=O)[nH]3)COCC4)CC(F)F)CC2)c1` [Example 73, N-(2,2-Difluoro-ethyl)-2-[4-(3-methoxy-benzoyl)-piperidin-1-yl]-N-(4-oxo-3,5,7,8-tetrahydro-4H-pyrano[4,3-d]pyrimidin-2-ylmethyl)-acetamide], the IC50 against Human PARP1 was greater than 19000 nM; against PARP2, greater than 19000 nM; in experiment [1], 470 ± 150 nM; in experiment [4], 49 ± 1 nM; in experiment [5] it was 16 ± 2 nM. In addition, in experiment [2], the AC50 was greater than 10000 nM.
